From patent US6489098B1, “Means and methods for monitoring nucleoside reverse transcriptase inhibitor antiretroviral therapy and guiding therapeutic decisions in the treatment of HIV/AIDS” (ViroLogic, Inc., priority 1998, dated 2002)

Key:
[1] = system: HIV with RT K70E mutation; conditions: in vitro selection; cited from earlier work
[2] = system: HIV with RT Lys65→Arg mutation; conditions: Lys65→Arg (K65R); cited from earlier work
[3] = system: AZT-resistant, 3TC-resistant and multi-drug resistant viruses; conditions: cited from earlier work
[4] = system: HIV-1 RT mutant resistance test vector 41 + 62 + 69 + 75S + 210 + 215; assay: Phenotypic susceptibility assay, site directed RTV 41 + 62 + 69 + 75S + 210 + 215; assay type: cell-based; conditions: RTV with 41 + 62 + 69 + 75S + 210 + 215; 1 replicate
Experimental: (§1) Resistance tests were carried out with resistance test vectors using two host cell types. Resistance test vector viral particles were produced by a first host cell (the resistance test vector host cell) that was prepared by transfecting a packaging host cell with the resistance test vector and the packaging expression vector. The resistance test vector viral particles were then used to infect a second host cell (the target host cell) in which the expression of the indicator gene is measured.
(§2) The resistance test vectors containing a functional luciferase gene cassette were constructed and host cells were transfected with the resistance test vector DNA. The resistant test vectors contained patient-derived reverse transcriptase and protease sequences that were either susceptible or resistant to the antiretroviral agents, such as nucleoside reverse transcriptase inhibitors, non-nucleoside reverse transcriptase inhibitors and protease inhibitors. The resistance test vector viral particles produced by transfecting the resistance test vector DNA into host cells, either in the presence or absence of protease inhibitors, were used to infect target host cells grown either in the absence of NRTI or NNRTI or In the presence of increasing concentrations of the drug. The amount of luciferase activIty produced in infected target host cells in the presence of drug was compared to the amount of luciferase produced in infected target host cells in the absence of drug. Drug resistance was measured as the amount of drug required to inhibit by 50% the luciferase activity detected in the absence of drug (Inhibitory concentration 50%, IC50). The IC50 values were determined by plotting percent drug inhibition vs. log 10 drug concentration.
(§3) Host cells were seeded in 10-cm-diameter dishes and were transfected several days after plating with resistance test vector plasmid DNA and the envelope expression vector. Transfections were performed using a calcium-phosphate precipitation procedure. The cell culture media containing the DNA precipitate was replaced with fresh medium, from one to 24 hours, after transfection. Cell culture media containing resistance test vector viral particles was harvested one to four days after transfection and was passed through a […] filter before being stored at −80° C. HIV capsid protein (p24) levels in the harvested cell culture media were determined by an EIA method as described by the manufacturer (SIAC; Frederick, Md.). Before infection, target cells (293 and 293/T) were plated in cell culture media. Control infections were performed using cell culture media from mock transfections (no DNA) or transfections containing the resistance test vector plasmid DNA without the envelope expression plasmid. One to three or more days after infectIon the media was removed and cell lysis buffer (Promega) was added to each well. Cell lysates were assayed for luciferase activity (FIG. 3). The inhibitory effect of the drug was determined using the following equation:
(§4) % luciferase inhibition=1−(RLUluc[drug]÷RLUluc)×100
(§5) where RLUluc [drug] is the relative light unit of luciferase activity in infected cells in the presence of drug and RLUluc is the Relative Light Unit of luciferase activity in infected cells in the absence of drug. IC50 values were obtained from the sigmoidal curves that were generated from the data by plotting the percent inhibition of luciferase activity vs. the log 10 drug concentration. The drug inhibition curves are shown in (FIG. 3).
(§6) Genotypic changes that are observed to correlate with changes in phenotypic patterns of drug susceptibility are evaluated by construction of resistance test vectors containing the specific mutation on a defined, wild-type (drug susceptible) genetic background. Mutations may be incorporated alone and/or in combination with other known drug resistance mutations that are thought to modulate the susceptibility of HIV to a certain drug or class of drugs. […]

[5] = system: HIV-1 RT mutant resistance test vector 41 + 69 + 184 + 215; assay: Phenotypic susceptibility assay, site directed RTV 41 + 69 + 184 + 215; assay type: cell-based; conditions: RTV with 41 + 69 + 184 + 215; 2 replicates
Experimental: as §1, §2, §3, §4, §5, §6

[6] = system: HIV-1 RT mutant resistance test vector 41 + 184 + 215; assay: Phenotypic susceptibility assay, site directed RTV 41 + 184 + 215; assay type: cell-based; conditions: RTV with 41 + 184 + 215; 3 replicates
Experimental: as §1, §2, §3, §4, §5, §6

[7] = system: HIV-1 RT mutant resistance test vector M41L-T69SSA-T215Y-RTV; assay: Phenotypic susceptibility assay, site directed RTV M41L+T69SSA+T215Y; assay type: cell-based; conditions: for effect on susceptibility (words): RTV with M41L+T69SSA+T215Y
Experimental: as §1, §2, §3, §4, §5, §6

[8] = system: HIV-1 RT mutant resistance test vector T69SSA; assay: Phenotypic susceptibility assay, site directed RTV T69SSA; assay type: cell-based; conditions: RTV with T69SSA vs wild type RTV; 3 replicates
Experimental: as §1, §2, §3, §4, §5, §6

[9] = system: HIV-1 RT mutant resistance test vector M41L+A62V+T69SSA+M184V+T215Y; assay: Phenotypic susceptibility assay, site directed RTV M41L+A62V+T69SSA+M184V+T215Y; assay type: cell-based; conditions: RTV with 41 + 62 + 69 + 184 + 215; 2 replicates
Experimental: as §1, §2, §3, §4, §5, §6

[10] = system: HIV-1 RT mutant resistance test vector A62V+T69SSA; assay: Phenotypic susceptibility assay, site directed RTV A62V+T69SSA; assay type: cell-based; conditions: RTV with 62 + 69 (A62V+T69SSA); 4 replicates
Experimental: as §1, §2, §3, §4, §5, §6

[11] = system: HIV-1 RT mutant resistance test vector 41 + 62 + 69 + 75M + 210 + 215; assay: Phenotypic susceptibility assay, site directed RTV 41 + 62 + 69 + 75M + 210 + 215; assay type: cell-based; conditions: RTV with 41 + 62 + 69 + 75M + 210 + 215; 1 replicate
Experimental: as §1, §2, §3, §4, §5, §6

[12] = system: HIV-1 RT mutant resistance test vector A62V; assay: Phenotypic susceptibility assay, site directed RTV A62V; assay type: cell-based; conditions: RTV with A62V vs wild type RTV; 3 replicates
Experimental: as §1, §2, §3, §4, §5, §6

[13] = system: HIV-1 RT mutant resistance test vector 41 + 210 + 215; assay: Phenotypic susceptibility assay, site directed RTV 41 + 210 + 215; assay type: cell-based; conditions: RTV with 41 + 210 + 215; 3 replicates
Experimental: as §1, §2, §3, §4, §5, §6

[14] = system: HIV-1 RT mutant resistance test vector A62V+T69SSA+V75I; assay: Phenotypic susceptibility assay, site directed RTV A62V+T69SSA+V75I; assay type: cell-based; conditions: RTV with 62 + 69 + 751 (A62V, T69SSA, V75I); 1 replicate
Experimental: as §1, §2, §3, §4, §5, §6

[15] = system: HIV-1 RT mutant resistance test vector 41 + 215 (M41L and T215Y); assay: Phenotypic susceptibility assay, site directed RTV 41 + 215; assay type: cell-based; conditions: RTV with 41 + 215; 4 replicates
Experimental: as §1, §2, §3, §4, §5, §6

[16] = system: HIV-1 RT mutant resistance test vector M41L-A62V-T69SSA-T215Y-RTV; assay: Phenotypic susceptibility assay, site directed RTV M41L+A62V+T69SSA+T215Y; assay type: cell-based; conditions: RTV with 41 + 62 + 69 + 215; 3 replicates
Experimental: as §1, §2
as §3, with “Cell lysates were assayed for luciferase activity (FIG. 3).” left out
as §4
as §5, with “concentration.” for “concentration. The drug inhibition curves are shown in (FIG. 3).”
Mutations may be incorporated alone and/or in combination with other known drug resistance mutations that are thought to modulate the susceptibility of HIV to a certain drug or class of drugs. Mutations are introduced into the resistance test vector through any of the widely known methods for site-directed mutagenesis. In one embodiment of this invention the mega-primer PCR method for site-directed mutagenesis is used.

[17] = system: HIV-1 RT mutant resistance test vector A62V-T69SSA-T215Y-RTV; assay: Phenotypic susceptibility assay, site directed RTV A62V-T69SSA-T215Y; assay type: cell-based; conditions: RTV with 62 + 69 + 215 (A62V, T69SSA, T215Y); 1 replicate
Experimental: as §1
(§7) The resistance test vectors containing a functional luciferase gene cassette were constructed and host cells were transfected with the resistance test vector DNA. […] The IC50 values were determined by plotting percent drug inhibition vs. log 10 drug concentration.
(§8) Host cells were seeded in 10-cm-diameter dishes and were transfected several days after plating with resistance test vector plasmid DNA and the envelope expression vector. […] HIV capsid protein (p24) levels in the harvested cell culture media were determined by an EIA method as described by the manufacturer (SIAC; Frederick, Md.). […] The inhibitory effect of the drug was determined using the following equation: […]

[18] = system: HIV-1 RT mutant resistance test vector M41L-A62V-T69SSA-T215Y-L210W-RTV; assay: Phenotypic susceptibility assay, site directed RTV M41L+A62V+T69SSA+L210W+T215Y; assay type: cell-based; conditions: RTV with 41 + 62 + 69 + 210 + 215; 3 replicates
Experimental: as §1
as §2, with “Drug resistance was measured as the amount of drug required to inhibit by 50% the luciferase activity detected in the absence of drug (Inhibitory concentration 50%, IC50).” left out
as §8

[19] = system: HIV-1 RT mutant resistance test vector M41L-T69SSA-T215Y-L210W-RTV; assay: Phenotypic susceptibility assay, site directed RTV M41L+T69SSA+L210W+T215Y; assay type: cell-based; conditions: RTV with 41 + 69 + 210 + 215; 3 replicates
Experimental: as §1
as §2, with “Drug resistance was measured as the amount of drug required to inhibit by 50% the luciferase activity detected in the absence of drug (Inhibitory concentration 50%, IC50).” left out
as §8

[20] = system: HIV-1 RT mutant resistance test vector M41L-T69SSA-T215Y-L210W-V75M-RTV; assay: Phenotypic susceptibility assay, site directed RTV M41L+T69SSA+V75M+L210W+T215Y; assay type: cell-based; conditions: RTV with 41 + 69 + 75M + 210 + 215; 1 replicate
Experimental: as §1, §7, §8

[21] = system: HIV-1 RT mutant resistance test vector A62V-T69SSA-L74V-RTV; assay: Phenotypic susceptibility assay, site directed RTV A62V-T69SSA-L74V; assay type: cell-based; conditions: RTV with 62 + 69 + 74V; 1 replicate
Experimental: as §1, §2
as §3, with “Cell lysates were assayed for luciferase activity (FIG. 3).” left out
as §4
as §5, with “The drug inhibition curves are shown in (FIG. 3).” left out

[22] = system: ZDV-resistant HIV isolates; conditions: cited from earlier work

Nc1ncnc2c1ncn2CCOCP(=O)(O)O [adefovir]
fold reduction in susceptibility [1]: 9 fold | fold increase in IC50 / reduction in susceptibility [2]: 16 fold | sensitivity of resistant viruses [3]: remain sensitive to adefovir

Nc1ccn([C@@H]2CS[C@H](CO)O2)c(=O)n1 [3TC, lamivudine]
Average fold reduction in susceptibility [4]: 31.67 fold | Average fold reduction in susceptibility [5]: >110 fold | Average fold reduction in susceptibility [6]: >110 fold | Average fold reduction in susceptibility ([7]; RTV with 41 + 69 + 215 (M41L, T69SSA, T215Y), 2 replicates): 6.27 fold | Average fold reduction in susceptibility [8]: 3.20 fold | Average fold reduction in susceptibility [9]: >110 fold | Average fold reduction in susceptibility [10]: 2.89 fold | Average fold reduction in susceptibility [11]: 18.41 fold | Average fold reduction in susceptibility [12]: 0.54 fold | Average fold reduction in susceptibility [13]: 2.14 fold | Average fold reduction in susceptibility [14]: 4.08 fold | Average fold reduction in susceptibility [15]: 1.89 fold

Cc1ccnc2c1NC(=O)c1cccnc1N2C1CC1 [NEV, nevirapine]
Average fold reduction in susceptibility [16]: 0.8 fold | Average fold reduction in susceptibility [17]: 0.6 fold | Average fold reduction in susceptibility [18]: 0.6 fold | effect on susceptibility (words) [7]: slight increase in susceptibility to DEL and NEV | Average fold reduction in susceptibility [19]: 0.42 fold | Average fold reduction in susceptibility [20]: 0.5 fold | Average fold reduction in susceptibility [21]: 0.3 fold

[N-]=[N+]=N[C@H]1C[C@H](n2ccc(=O)[nH]c2=O)O[C@@H]1CO [AZU, 3′-azido-2′,3′-dideoxyuridine]
cross-resistance of ZDV-resistant strains [22]: cross-resistance

CC(C)Nc1cccnc1N1CCN(C(=O)c2cc3cc(NS(C)(=O)=O)ccc3[nH]2)CC1 [DEL, delavirdine]
Average fold reduction in susceptibility [16]: 0.2 fold | Average fold reduction in susceptibility [17]: 0.3 fold | Average fold reduction in susceptibility [18]: 0.2 fold | effect on susceptibility (words) [7]: slight increase in susceptibility to DEL and NEV | Average fold reduction in susceptibility [19]: 0.13 fold | Average fold reduction in susceptibility [20]: 0.25 fold | Average fold reduction in susceptibility [21]: 0.4 fold
